Data from US8853230B2, “Inhibitors of JAK” (Portola Pharmaceuticals, Inc., priority 2009, dated 2014).

Key:
Syk [1] = biological target: T1, Syk (Homo sapiens, UniProt P43405); experiment: Syk kinase inhibition (Syk IC50 of Table 1); type: biochemical
JAK3 = biological target: T2, JAK3 (Homo sapiens, UniProt P52333); experiment: Z'-LYTE kinase assay, JAK3 tyrosine phosphorylation activity; type: biochemical
T2 construct: 5 μl of catalytic domain recombinant Kinase enzyme+Tyr peptide substrate (Invitrogen, Calif.); purchased Invitrogen
T2 sequence (P52333 822-1111 limits assumed): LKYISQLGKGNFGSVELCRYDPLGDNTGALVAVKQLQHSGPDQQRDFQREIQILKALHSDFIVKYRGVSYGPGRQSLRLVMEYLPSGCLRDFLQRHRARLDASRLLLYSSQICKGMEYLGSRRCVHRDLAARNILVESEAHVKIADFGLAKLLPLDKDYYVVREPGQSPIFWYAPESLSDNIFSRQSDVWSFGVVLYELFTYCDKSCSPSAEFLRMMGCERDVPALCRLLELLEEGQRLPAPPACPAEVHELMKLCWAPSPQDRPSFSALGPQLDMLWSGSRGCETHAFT
Outline: (§1)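 Inhibition is expressed as substrate phosphorylation relative to inhibitor-free wells, fitted with a 4-parameter logistic model for IC50. Reactions contain catalytic-domain kinase, Tyr6 peptide and ATP, run 1 h at room temperature. Development protease is added for 1 h before fluorescence readout.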

JAK1 = biological target: T3, JAK1 (Homo sapiens, UniProt P23458); experiment: Z'-LYTE kinase assay, JAK1 tyrosine phosphorylation activity; type: biochemical; conditions: read-out: JAK 1 IC50
T3 construct: 5 μl of catalytic domain recombinant Kinase enzyme+Tyr peptide substrate (Invitrogen, Calif.); purchased Invitrogen
T3 sequence (P23458 875-1153 limits assumed): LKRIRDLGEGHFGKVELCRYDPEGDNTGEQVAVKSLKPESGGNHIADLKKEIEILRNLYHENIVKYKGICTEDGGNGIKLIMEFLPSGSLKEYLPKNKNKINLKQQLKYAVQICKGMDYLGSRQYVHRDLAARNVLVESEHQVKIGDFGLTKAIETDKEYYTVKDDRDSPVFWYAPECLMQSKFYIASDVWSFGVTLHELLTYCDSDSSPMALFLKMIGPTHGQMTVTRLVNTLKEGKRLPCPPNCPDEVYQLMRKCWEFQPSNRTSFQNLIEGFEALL
Outline: as §1

JAK2 = biological target: T4, JAK2 (Homo sapiens, UniProt O60674); experiment: Z'-LYTE kinase assay, JAK2 tyrosine phosphorylation activity; type: biochemical
T4 construct: 5 μl of catalytic domain recombinant Kinase enzyme+Tyr peptide substrate (Invitrogen, Calif.); purchased Invitrogen
T4 sequence (O60674 849-1124 limits assumed): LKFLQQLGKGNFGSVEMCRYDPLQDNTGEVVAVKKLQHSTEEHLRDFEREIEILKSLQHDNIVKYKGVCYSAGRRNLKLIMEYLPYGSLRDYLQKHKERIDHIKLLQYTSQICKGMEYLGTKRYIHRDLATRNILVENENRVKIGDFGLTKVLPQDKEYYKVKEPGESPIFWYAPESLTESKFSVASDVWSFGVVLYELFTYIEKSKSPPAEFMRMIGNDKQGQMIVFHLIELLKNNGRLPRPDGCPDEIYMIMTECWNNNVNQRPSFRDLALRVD
Outline: as §1

Syk [2] = biological target: T1, Syk; experiment: Syk IC50 (Table 1; method not given); type: biochemical
[3] = system: IL4-induced phospho STAT6 formation in Ramos B lymphocytes; experiment: Inhibition of IL4-induced phospho STAT6 formation in Ramos B lymphocytes (flow cytometry); type: cell-based, human; conditions: Homo sapiens
Outline: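 Human Ramos B cells (0.5 million) pre-incubated 1 h at 37°C/5% CO2 with compound or DMSO, then stimulated with 1 ng/ml IL4 for 10 min. Cells were PFA-fixed, methanol-permeabilized and stained with Alexa-anti-phosphoSTAT6 (Y641); flow cytometry mean fluorescence gave percent inhibition of the IL4 signal.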

TYK2 = biological target: T5, TYK2 (Homo sapiens, UniProt P29597); experiment: Z'-LYTE kinase assay, TYK2 tyrosine phosphorylation activity; type: biochemical
T5 construct: 5 μl of catalytic domain recombinant Kinase enzyme+Tyr peptide substrate (Invitrogen, Calif.); purchased Invitrogen
T5 sequence (P29597 897-1176 limits assumed): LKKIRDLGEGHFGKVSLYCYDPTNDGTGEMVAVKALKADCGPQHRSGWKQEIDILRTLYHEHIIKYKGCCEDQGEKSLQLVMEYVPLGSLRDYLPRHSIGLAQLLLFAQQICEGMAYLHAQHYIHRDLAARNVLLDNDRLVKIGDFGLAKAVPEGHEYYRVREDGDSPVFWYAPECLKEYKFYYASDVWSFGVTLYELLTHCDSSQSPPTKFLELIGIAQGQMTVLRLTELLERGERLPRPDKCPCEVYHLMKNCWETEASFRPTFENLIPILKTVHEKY
Outline: as §1

SMILES | IC50 (Syk [1]) [µM] | IC50 (JAK3) [µM] | IC50 (JAK1) [µM] | IC50 (JAK2) [µM] | IC50 (Syk [2]) [µM] | inhibition at 0.2 µM ([3]; 200 nM compound, read-out: % Inhibition of IL-4 Induced STAT6 Phosphorylation 200 nM) [%] | inhibition at 1 µM ([3]; 1 μM compound, read-out: % Inhibition of IL-4 Induced STAT6 Phosphorylation 1 μM) [%] | IC50 (TYK2) [µM]
CN(C)[C@@H]1CCN(C(=O)Nc2cccc(Nc3cc(N[C@H](CO)c4ccccc4)c(C(N)=O)cn3)c2)C1 [Example 312, 6-(3-((R)-3-(dimethylamino)pyrrolidine-1-carboxamido)phenylamino)-4-((S)-2-hydroxy-1-phenylethylamino)nicotinamide] | > 1 | 0.001 to 0.01 | > 1 | 0.1 to 1 | – | – | – | –
CC(=O)Nc1cccc(Nc2cc(NCc3ccccc3F)c(C(N)=O)cn2)c1 [Example 340, 6-(3-acetamidophenylamino)-4-(2-fluorobenzylamino)nicotinamide] | > 1 | 0.01 to 0.1 | 0.1 to 1 | 0.1 to 1 | – | – | – | –
CCOC(=O)Nc1cccc(Nc2ncc(C(N)=O)c(NC3CCCC3)n2)c1 [Example 24, ethyl 3-(5-carbamoyl-4-(cyclopentylamino)pyrimidin-2-ylamino)phenylcarbamate] | – | 0.01 to 0.1 | 0.1 to 1 | 0.1 to 1 | 0.1 to 1 | 24.7 | 71.3 | 0.01 to 0.1
